Reference: patent US7939580B2, “Dental composition containing epoxy functional polymerizable compounds” (3M Innovative Properties Company, priority 2004, dated 2011)

How the values were obtained:
[1] = Refractive index (Kruess AR 4 D Abbe refractometer); type: physicochemical; settings: 20.0° C., wavelength 589 nm
Experimental: The refractive index of the halogenated epoxy functional ether derivative was measured with a Kruess AR 4 D device (refractometer according to Abbe's measure principle). The refractive index was measured at 20.0° C. and at a wavelength of 589 nm.

[2] = system: Salmonella Strains TA98 and TA100; assay: AMES mutagenicity testing protocol (OECD Guideline 471, ISO 10993-3); type: cell-based; parameters: key: tested to be non mutagenic
Source text: The mutagenicity of the halogenated epoxy functional ether derivative according to the AMES mutagenicity testing protocol has been tested according to OECD Guideline 471 and ISO 10993-3 (2003).

Compound | Refractive Index [1] | Mutagenic [yes/no] [2]
1,5-Bis[2-(2,3-epoxy-propyl)-4,6-dichloro-phenyl]-pentane [Example 2] | 1.561 | n^1)
1,5-Bis[2-(2,3-epoxy-propyl)-6-chloro-phenyl]-pentane [Example 1] | 1.552 | n^1)
CC(C)(c1cc(Cl)c(OCCCC2CO2)c(Cl)c1)c1cc(Cl)c(OCCCC2CO2)c(Cl)c1 (stereo not shown) [Example 3, 2,2-Bis[3,5-dichloro-4-(4,5-epoxy-pentyloxy)-phenyl]-propane] | 1.571 | n^1)
CC(C)(c1cc(Br)c(OCCC2CO2)c(Br)c1)c1cc(Br)c(OCCC2CO2)c(Br)c1 (stereo not shown) [Example 4, 2,2-Bis[3,5-dibromo-4-(3,4-epoxy-butyloxy)-phenyl]-propane] | 1.610 | n^1)
CC(C)(c1cc(Br)c(OCCCC2CO2)c(Br)c1)c1cc(Br)c(OCCCC2CO2)c(Br)c1 (stereo not shown) [Example 5, 2,2-Bis[3,5-dibromo-4-(4,5-epoxy-pentyloxy)-phenyl]-propane] | 1.604 | n^1)
Clc1cccc(CC2CO2)c1OCCC1CO1 (stereo not shown) [Example 6, 4-[2-(2,3-epoxy-propyl)-6-chloro-phenoxy]-1,2-epoxybutane] | 1.535 | 
C[Si]1(CCC2CCC3OC3C2)O[Si](C)(CCC2CCC3OC3C2)O[Si](C)(CCC2CCC3OC3C2)O[Si](C)(CCC2CCC3OC3C2)O1 (stereo not shown) [Reference Compound 1, 1,3,5,7-Tetrakis[2-(3,4-epoxycyclohexyl)-ethyl]-1,3,5,7-tetramethyl-cyclotetrasiloxane, reference compound] | 1.496 | 
C[Si](CCC1CCC2OC2C1)(CCC1CCC2OC2C1)c1ccccc1 (stereo not shown) [Reference Compound 2, Bis[2-(3,4-epoxycyclohexyl)-ethyl]-methyl-phenyl-silane, reference compound] | 1.536 | 
c1cc(OCC2CO2)ccc1Cc1ccc(OCC2CO2)cc1 (stereo not shown) [Reference Compound 3, Bis[4-(2,3-epoxy-propyloxy)-phenyl]-methane, reference compound] | 1.579 | 
CC(C)(c1ccc(OCCC2CO2)cc1)c1ccc(OCCC2CO2)cc1 (stereo not shown) [Reference Compound 4, 2,2-Bis[4-(3,4-epoxy-butyloxy)-phenyl]-propane, reference compound] | 1.563 | 
CC(C)(c1ccc(OCCCC2CO2)cc1)c1ccc(OCCCC2CO2)cc1 (stereo not shown) [Reference Compound 5, 2,2-Bis[4-(4,5-epoxy-pentyloxy)-phenyl]-propane, reference compound] | 1.551 | 
